Measured values reported in paper PMC11148772, “Inhibition of protein translational machinery in triple-negative breast cancer as a promising therapeutic strategy” (Cell Reports Medicine, 2024).

Experiments:
[1] = system: MDA-MB-231 tumor xenograft; assay: Subcutaneous tumor xenograft; type: in vivo, mouse; details: 50 mg/kg oral gavage, NSG mice
Method: (§1) Female NOD-Scid gamma (NSG, Homozygous for Prkdc, Hemizygous for Il2rg<tm1Wjl>) (Strain #005557) and Balb/cJ (Strain#000651) (7–8 weeks old) mice were purchased from the Jackson Laboratory and housed under standard laboratory conditions. The Institutional Animal Care & Use Program of Oregon Health and Science University approved the protocol (#IP00003247). MDA-MB-231 (3 x 10^6), MDA-MB-468 (5 x 10^6), 4T1 (1 x 10^5) and EMT6 (1 x 10^5) cells were suspended in 100 μL of 1x PBS and injected subcutaneously in each mouse. Tumor growth was monitored regularly and once the tumors reached approximately around 50–100 mm^3, treatment with SU056 (50 mg/kg body weight given by oral gavage, 5 days per week) was started. Tumor size and body weight were measured once a week. At the end of treatment, mice were euthanized via deep anesthesia followed by cervical dislocation. Tumors were excised and weighed. Tumor samples were processed for immunoblotting for different markers.

[2] = system: MDA-MB-468 tumor xenograft; assay: Subcutaneous tumor xenograft; type: in vivo, mouse; details: 50 mg/kg oral gavage, NSG mice
Method: as §1

4T1 tumor = assay: Syngeneic mouse TNBC model; type: in vivo; details: 50 mg/kg oral gavage, Balb/cJ mice
Method: as §1

EMT6 tumor = assay: Syngeneic mouse TNBC model; type: in vivo; details: 50 mg/kg oral gavage, Balb/cJ mice
Method: as §1

CA1262-PDX-TNBC = assay: Patient-derived xenograft; type: in vivo, mouse; details: 50 mg/kg orally, NSG mice
From the text: (§2) Different patient-derived xenograft (PDX) of TNBC were used in this study. The Institutional Animal Care & Use Program of Oregon Health and Science University approved the protocol (#IP00003247). SUTI151-PDX-TNBC was kindly provided by Stefanie S. Jeffrey, MD, Stanford University, CA, USA.[48] CA1616-PDX-TNBC, CA1262-PDX-TNBC, and MA2821-PDX-TNBC were procured from the NCI Patient-Derived Models Repository (PDMR). Information of the PDX samples from NCI can be accessed at https://pdmr.cancer.gov/models/pdx.htm. 6–8 weeks old NSG (female) mice were anesthetized with isoflurane and tumor cells were xenografted into 5th mammary fat pad. Post-xenograft, once tumors reached a size of 50–100 mm^3, SU056 treatment (50 mg/kg body weight administered by oral gavage, 5 days per week) was started. At the end of treatment, mice were euthanized under deep anesthesia and tumors were surgically removed, measured, and weighed.

CA1616-PDX-TNBC = assay: Patient-derived xenograft; type: in vivo, mouse; details: 50 mg/kg orally, NSG mice
From the text: as §2

MA2821-PDX-TNBC = assay: Patient-derived xenograft; type: in vivo, mouse; details: 50 mg/kg orally, NSG mice
From the text: as §2

SUTI151-PDX-TNBC = assay: Patient-derived xenograft; type: in vivo, mouse; details: 50 mg/kg orally, NSG mice
From the text: as §2

[3] = Body weight during tumor xenograft treatment; type: in vivo, mouse; details: 50 mg/kg
Method: as §1
Data S2. Effect of SU056 treatment on body weight, metastatic potential and pharmacokinetic profiling of SU056, related to Figure 2 and 3
Human, mouse and PDX models of TNBC were used for tumor xenograft studies. SU056 treatment was started when tumors reached around ~25-50 mm3 and continued until the experiment reached its 3-week endpoint. Body weight was monitored throughout the study to understand any change in dietary pattern. […]

[4] = system: TNBC cells (MDA-MB-231, MDA-MB-468, SUM159); assay: Immunoblot assay of cell lysates; type: cell-based, human
Method: MDA-MB-231, MDA-MB-468, and SUM159 cells were grown to 60–70% confluency and treated with DMSO and SU056 (1 μM) for 12 and 24 h. After the specific treatment time was over, total cell lysates were prepared in non-denaturing lysis buffer. For protein lysate from tumors: randomly selected frozen sample; three from vehicle and SU056 treated group were homogenized in non-denaturing lysis buffer at 4°C for 5 min. 10 μg of protein lysate per sample was resolved on 8–16% SDS-PAGE. Membranes were probed with specific primary antibodies followed by detection with HRP-conjugated appropriate secondary antibodies, visualized by enhanced chemiluminescence detection system, and imaged using an iBright imaging system (Thermo Fisher, USA).

O=C1OCC2=C1C(c1cccc(F)c1)c1cc3c(cc1N2CCO)OCO3 (centres unmarked) [SU056, 9-(3-fluorophenyl)-5-(2-hydroxyethyl)-6,9-dihydro-[1,3]dioxolo[4,5-g]furo[3,4-b]quinolin-8(5H)-one]
tumor growth arrested compared to vehicle control [1]: 48%
tumor weight reduced compared with vehicle control [1]: 44.4%
primary tumor growth reduced compared with vehicle control [2]: 49.8%
tumor weight reduced compared with vehicle control [2]: 35.1%
primary tumor load reduced compared with vehicle control (4T1 tumor): 45.53%
tumor weight reduced compared with vehicle control (4T1 tumor): 61%
reduction in tumor weight (EMT6 tumor): 42.53%
tumor growth decreased in comparison to control (EMT6 tumor): 37.47%
tumor volume reduced compared to vehicle control (CA1262-PDX-TNBC): 49.8%
tumor weight decreased (CA1262-PDX-TNBC): 34.67%
tumor volume reduced compared to vehicle control (CA1616-PDX-TNBC): 63.1%
tumor weight decreased (CA1616-PDX-TNBC): 43.6%
tumor growth decreased (MA2821-PDX-TNBC): 51.35%
tumor weight reduced (MA2821-PDX-TNBC): 48.89%
reduction in tumor weight (SUTI151-PDX-TNBC): 29%
tumor volume reduced compared to control (SUTI151-PDX-TNBC): 37%
body weight of animals throughout treatment ([3]; MDA-MB-231, MDA-MB-468, 4T1, EMT6 models): remained the same
body weight of animals throughout treatment ([3]; PDX models): remained the same
RPLs (RPL36, RPL35, RPL32, RPL23A, RPL15, RPL11, RPL9) ([4]; 1 μM, 12 and 24 h): decreased
YB-1 expression ([4]; 1 μM, 12 and 24 h): decreased
c-Myc expression ([4]; 1 μM, 12 and 24 h): decreased
expression of RPSs ([4]; 1 μM, 12 and 24 h): lower expression
levels of translation initiation factors ([4]; 1 μM, 12 and 24 h): decreased
overall levels of mTOR ([4]; 1 μM, 12 and 24 h): decreased
phosphorylation of mTOR (S2448) ([4]; 1 μM, 12 and 24 h): inhibited
phosphorylation of p70S6 kinase (T389 and S371) and S6R (S235/S236) ([4]; 1 μM, 12 and 24 h): decreased
phospho-histone H3 (Ser10), mitotic phase marker ([4]; 12 and 24 h): arrests TNBC cells in the mitotic phase
integrated stress response activation (PERK, eIF2α, ATF4) ([4]; MDA-MB-231 and MDA-MB-468, 1 μM): did not induce
cell cycle regulatory proteins (p21 and p27) ([4]; MDA-MB-231 and MDA-MB-468, 1 μM, 12 and 24 h): moderate increase
